# Experimental data from patent US8673908B2, “Kynurenine production inhibitor” (Kyowa Hakko Kirin Co., Ltd., priority 2008, dated 2014).
# pIC50: −log10 of the molar value.
# Tested on: kynurenine production in IFN-γ-treated KATO-III cells
# Assay: Inhibitory activity on kynurenine production (Test Example 1)
# Type: cell-based
# Settings: Homo sapiens, IFN-γ treatment, culture for 96 hours, read-out: IC50 value, inhibition of kynurenine production
# Outline: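 KATO-III human gastric cancer cells (2,000/well, RPMI 1640 + 10% FBS) were cultured with compound and IFN-γ (31.25 ng/mL in the cell suspension), DMSO ≤0.1%, for 96 h at 37 °C, 5% CO2. Kynurenine was read at A480 after TCA at 65 °C and p-dimethylaminobenzaldehyde. Inhibition used IFN-γ-treated and untreated DMSO wells as references.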
row,SMILES,pIC50
1,"Cc1ccccc1S(=O)(=O)Nc1nc2ccccc2nc1OC(c1cccnc1)C(F)(F)F (stereo not shown) [Compound 156, 2-methyl-N-{3-[2,2,2-trifluoro-1-(pyridin-3-yl)ethoxy]-quinoxalin-2-yl}benzenesulfonamide]",> 6.00
2,"Nc1ccccc1S(=O)(=O)Nc1nc2ccccc2nc1OC(c1cccnc1)C(F)(F)F (stereo not shown) [Compound 157, 2-amino-N-{3-[2,2,2-trifluoro-1-(pyridin-3-yl)ethoxy]-quinoxalin-2-yl}benzenesulfonamide]",> 6.00
3,"O=S(=O)(Nc1nc2ccccc2nc1OC(c1cccnc1)C(F)(F)F)c1ccsc1 (stereo not shown) [Compound 161, N-{3-[2,2,2-trifluoro-1-(pyridin-3-yl)ethoxy]quinoxalin-2-yl}thiophene-3-sulfonamide]",> 6.00
4,"Cc1cc(S(=O)(=O)Nc2nc3ccccc3nc2OC(c2cccnc2)C(F)(F)F)c(C)s1 (stereo not shown) [Compound 162, 2,5-dimethyl-N-{3-[2,2,2-trifluoro-1-(pyridin-3-yl)ethoxy]-quinoxalin-2-yl}thiophene-3-sulfonamide]",> 6.00
5,"O=S(=O)(Nc1nc2ccccc2nc1OC(c1cccnc1)C(F)(F)F)c1cc2ccccc2s1 (stereo not shown) [Compound 164, N-{3-[2,2,2-trifluoro-1-(pyridin-3-yl)ethoxy]quinoxalin-2-yl}benzo[b]thiophene-2-sulfonamide]",> 6.00
6,"CN1CCOc2cc(S(=O)(=O)Nc3nc4ccccc4nc3OC(c3cccnc3)C(F)(F)F)ccc21 (stereo not shown) [Compound 165, 4-methyl-N-{3-[2,2,2-trifluoro-1-(pyridin-3-yl)ethoxy]-quinoxalin-2-yl}-3,4-dihydro-2H-benzo[b][1,4]oxazine-7-sulfonamide]",> 6.00
7,"CC(C)(COc1nc2ccccc2nc1NS(=O)(=O)c1ccccc1Cl)c1cccnc1 [Compound 167, 2-chloro-N-{3-[2-methyl-2-(pyridin-3-yl)propoxy]quinoxalin-2-yl}benzenesulfonamide]",> 6.00
8,"O=S(=O)(Nc1nc2ccccc2nc1OC(c1cccnc1)C(F)(F)F)C1CCCC1 (stereo not shown) [Compound 169, N-{3-[2,2,2-trifluoro-1-(pyridin-3-yl)ethoxy]quinoxalin-2-yl}cyclopentanesulfonamide]",> 6.00
9,"Cc1nn(C)c(Cl)c1S(=O)(=O)Nc1nc2ccccc2nc1OC(c1cncn1C)C(F)(F)F (stereo not shown) [Compound 170, 5-chloro-1,3-dimethyl-N-{3-[2,2,2-trifluoro-1-(1-methyl-1H-imidazol-5-yl)ethoxy]quinoxalin-2-yl}-1H-pyrazole-4-sulfonamide]",> 6.00
10,"Cc1noc(C)c1S(=O)(=O)Nc1nc2ccccc2nc1OC(c1cncn1C)C(F)(F)F (stereo not shown) [Compound 171, 3,5-dimethyl-N-{3-[2,2,2-trifluoro-1-(1-methyl-1H-imidazol-5-yl)ethoxy]quinoxalin-2-yl}isoxazole-4-sulfonamide]",> 6.00
11,"O=S(=O)(Nc1nc2ccccc2nc1OC(CCc1cccnc1)C(F)(F)F)c1ccccc1Cl (stereo not shown) [Compound 172, 2-chloro-N-{3-[1,1,1-trifluoro-4-(pyridin-3-yl)butan-2-yloxy]quinoxalin-2-yl}benzenesulfonamide]",> 6.00
12,"O=S(=O)(Cc1ccccc1Cl)Nc1nc2ccccc2nc1OC(c1cccnc1)C(F)(F)F (stereo not shown) [Compound 173, 1-(2-chlorophenyl)-N-{3-[2,2,2-trifluoro-1-(pyridin-3-yl)-ethoxy]quinoxalin-2-yl}methanesulfonamide]",> 6.00
13,"CN(C)S(=O)(=O)Nc1nc2ccccc2nc1OC(c1cccnc1)C(F)(F)F (stereo not shown) [Compound 174, N-{3-[2,2,2-trifluoro-1-(pyridin-3-yl)ethoxy]quinoxalin-2-yl}-N′,N′-dimethyl-sulfuric diamide]",> 6.00
14,"CC(CCOc1nc2ccccc2nc1NS(=O)(=O)c1ccccc1Cl)c1cccnc1 (stereo not shown) [Compound 177, 2-chloro-N-{3-[3-(pyridin-3-yl)butoxy]quinoxalin-2-yl}-benzenesulfonamide]",> 6.00
15,"Cc1noc(C)c1S(=O)(=O)Nc1nc2ccccc2nc1OC(c1cncs1)C(F)(F)F (stereo not shown) [Compound 178, 3,5-dimethyl-N-{3-[2,2,2-trifluoro-1-(thiazol-5-yl)ethoxy]-quinoxalin-2-yl}isoxazole-4-sulfonamide]",> 6.00
16,"CC(C)CS(=O)(=O)Nc1nc2ccccc2nc1OC(c1cccnc1)C(F)(F)F (stereo not shown) [Compound 180, 2-methyl-N-{3-[2,2,2-trifluoro-1-(pyridin-3-yl)ethoxy]-quinoxalin-2-yl}propane-1-sulfonamide]",> 6.00
17,"O=S(=O)(Nc1nc2ccccc2nc1OC(c1cccnc1)C(F)(F)F)c1cccc(Cl)c1 (stereo not shown) [Compound 181, 3-chloro-N-{3-[2,2,2-trifluoro-1-(pyridin-3-yl)ethoxy]-quinoxalin-2-yl}benzenesulfonamide]",> 6.00
18,"O=S(=O)(Nc1nc2ccccc2nc1OC(c1cccnc1)C(F)(F)F)c1ccc(Cl)cc1 (stereo not shown) [Compound 182, 4-chloro-N-{3-[2,2,2-trifluoro-1-(pyridin-3-yl)ethoxy]-quinoxalin-2-yl}benzenesulfonamide]",> 6.00
19,"O=S(=O)(Nc1nc2ccccc2nc1OC(c1cccnc1)C(F)(F)F)C1CCCCC1 (stereo not shown) [Compound 183, N-{3-[2,2,2-trifluoro-1-(pyridin-3-yl)ethoxy]quinoxalin-2-yl}cyclohexanesulfonamide]",> 6.00
20,"Cc1nn(C)c(Cl)c1S(=O)(=O)Nc1nc2ccccc2nc1OC(c1ccccc1)C(F)(F)F (stereo not shown) [Compound 184, 5-chloro-1,3-dimethyl-N-[3-(2,2,2-trifluoro-1-phenyl-ethoxy)quinoxalin-2-yl]-1H-pyrazole-4-sulfonamide]",> 6.00
21,"Cc1nn(C)c(Cl)c1S(=O)(=O)Nc1nc2ccccc2nc1OC(c1cncs1)C(F)(F)F (stereo not shown) [Compound 186, 5-chloro-1,3-dimethyl-N-{3-[2,2,2-trifluoro-1-(thiazol-5-yl)ethoxy]quinoxalin-2-yl}-1H-pyrazole-4-sulfonamide]",> 6.00
22,"CCC(C)S(=O)(=O)Nc1nc2ccccc2nc1OC(c1cccnc1)C(F)(F)F (stereo not shown) [Compound 187, N-{3-[2,2,2-trifluoro-1-(pyridin-3-yl)ethoxy]quinoxalin-2-yl}butane-2-sulfonamide]",> 6.00
23,"O=S(=O)(Nc1nc2ccccc2nc1OC(c1cccnc1)C(F)(F)F)N1CCOCC1 (stereo not shown) [Compound 188, N-{3-[2,2,2-trifluoro-1-(pyridin-3-yl)ethoxy]quinoxalin-2-yl}morpholine-4-sulfonamide]",> 6.00
24,"CCCCS(=O)(=O)Nc1nc2ccccc2nc1OC(c1cccnc1)C(F)(F)F (stereo not shown) [Compound 191, N-{3-[2,2,2-trifluoro-1-(pyridin-3-yl)ethoxy]quinoxalin-2-yl}butane-1-sulfonamide]",> 6.00
25,"CCCS(=O)(=O)Nc1nc2ccccc2nc1OC(c1ccc(C)nc1)C(F)(F)F (stereo not shown) [Compound 192, N-{3-[2,2,2-trifluoro-1-(6-methylpyridin-3-yl)ethoxy]-quinoxalin-2-yl}propane-1-sulfonamide]",> 6.00
26,"CCCNS(=O)(=O)Nc1nc2ccccc2nc1OC(c1cccnc1)C(F)(F)F (stereo not shown) [Compound 194, N-propyl-N′-{3-[2,2,2-trifluoro-1-(pyridin-3-yl)ethoxy]-quinoxalin-2-yl}sulfuric diamide]",> 6.00

# More lines, now with the values ahead:
row,pIC50,SMILES
1,> 6.00,"Cc1noc(C)c1S(=O)(=O)Nc1nc2ccccc2nc1OC(c1cccnc1)C(F)(F)F (stereo not shown) [Compound 155, 3,5-dimethyl-N-{3-[2,2,2-trifluoro-1-(pyridin-3-yl)ethoxy]-quinoxalin-2-yl}isoxazole-4-sulfonamide]"
2,> 6.00,"COc1ccccc1S(=O)(=O)Nc1nc2ccccc2nc1OC(c1cccnc1)C(F)(F)F (stereo not shown) [Compound 158, 2-methoxy-N-{3-[2,2,2-trifluoro-1-(pyridin-3-yl)ethoxy]-quinoxalin-2-yl}benzenesulfonamide]"
3,> 6.00,"O=S(=O)(Nc1nc2ccccc2nc1OCCCc1cccnc1)c1cccc(Cl)c1Cl [Compound 159, 2,3-dichloro-N-{3-[3-(pyridin-3-yl)propoxy]quinoxalin-2-yl}benzenesulfonamide]"
4,> 6.00,"Cc1nc(C)c(S(=O)(=O)Nc2nc3ccccc3nc2OC(c2cccnc2)C(F)(F)F)s1 (stereo not shown) [Compound 163, 2,4-dimethyl-N-{3-[2,2,2-trifluoro-1-(pyridin-3-yl)ethoxy]-quinoxalin-2-yl}thiazole-5-sulfonamide]"
5,> 6.00,"CC(C)S(=O)(=O)Nc1nc2ccccc2nc1OC(c1cccnc1)C(F)(F)F (stereo not shown) [Compound 168, N-{3-[2,2,2-trifluoro-1-(pyridin-3-yl)ethoxy]quinoxalin-2-yl}propane-2-sulfonamide]"
6,> 6.00,"Cn1cncc1C(Oc1nc2ccccc2nc1NS(=O)(=O)c1ccccc1Cl)C(F)(F)F (stereo not shown) [Compound 175, 2-chloro-N-{3-[2,2,2-trifluoro-1-(1-methyl-1H-imidazol-5-yl)ethoxy]quinoxalin-2-yl}benzenesulfonamide]"
7,> 6.00,"CC(COc1nc2ccccc2nc1NS(=O)(=O)c1ccccc1Cl)Cc1cccnc1 (stereo not shown) [Compound 176, 2-chloro-N-{3-[2-methyl-3-(pyridin-3-yl)propoxy]quinoxalin-2-yl}benzenesulfonamide]"
8,> 6.00,"Cc1noc(C)c1S(=O)(=O)Nc1nc2ccccc2nc1OC(c1ccccc1)C(F)(F)F (stereo not shown) [Compound 185, 3,5-dimethyl-N-[3-(2,2,2-trifluoro-1-phenylethoxy)-quinoxalin-2-yl]isoxazole-4-sulfonamide]"
9,> 6.00,"O=S(=O)(Nc1nc2ccccc2nc1OC(c1cccnc1)C(F)(F)F)NC1CC1 (stereo not shown) [Compound 189, N-cyclopropyl-N′-{3-[2,2,2-trifluoro-1-(pyridin-3-yl)-ethoxy]quinoxalin-2-yl}sulfuric diamide]"
10,> 6.00,"CCS(=O)(=O)Nc1nc2ccccc2nc1OC(c1cccnc1)C(F)(F)F (stereo not shown) [Compound 190, N-{3-[2,2,2-trifluoro-1-(pyridin-3-yl)ethoxy]quinoxalin-2-yl}ethanesulfonamide]"
11,> 6.00,"O=S(=O)(CC(F)(F)F)Nc1nc2ccccc2nc1OC(c1cccnc1)C(F)(F)F (stereo not shown) [Compound 193, 2,2,2-trifluoro-N-{3-[2,2,2-trifluoro-1-(pyridin-3-yl)-ethoxy]quinoxalin-2-yl}ethanesulfonamide]"
